Experimental data reported in patent publication US9125913B2, “Bcl-2-selective apoptosis-inducing agents for the treatment of cancer and immune diseases” (AbbVie Inc., priority 2008, dated 2015).

Test system: GST-Bcl-2
Assay: TR-FRET binding assay, Bcl-2
Details: TR-FRET Ki values
Outline: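 Compounds serially diluted in DMSO from 50 μM (2× starting concentration, 10% DMSO), mixed with GST-tagged protein, F-Bak peptide probe and Tb-labeled antibody, incubated 3 h at room temperature.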

SMILES | Binding selectivity ratio (Bcl-XL Ki/Bcl-2 Ki)
COCCOCCNc1ccc(S(=O)(=O)NC(=O)c2ccc(N3CCN(CC4=C(c5ccc(Cl)cc5)CC(C)(C)CC4)CC3)cc2Oc2cccc3[nH]ccc23)cc1[N+](=O)[O-] [EXAMPLE 293, 4-(4-{[2-(4-chlorophenyl)-4,4-dimethylcyclohex-1-en-1-yl]methyl}piperazin-1-yl)-2-(1H-indol-4-yloxy)-N-[(4-{[2-(2-methoxyethoxy)ethyl]amino}-3-nitrophenyl)sulfonyl]benzamide] | 505.1
CC1(C)CCC(CN2CCN(c3ccc(C(=O)NS(=O)(=O)c4ccc(N[C@H]5CC[C@H](N6CCOCC6)CC5)c([N+](=O)[O-])c4)c(Oc4cccc5[nH]cnc45)c3)CC2)=C(c2ccc(Cl)cc2)C1 [EXAMPLE 452, Trans-2-(1H-benzimidazol-4-yloxy)-4-(4-{[2-(4-chlorophenyl)-4,4-dimethylcyclohex-1-en-1-yl]methyl}piperazin-1-yl)-N-({4-[(4-morpholin-4-ylcyclohexyl)amino]-3-nitrophenyl}sulfonyl)benzamide] | 600.39
CC1(C)CCC(CN2CCN(c3ccc(C(=O)NS(=O)(=O)c4ccc(NCC5CCOCC5)c([N+](=O)[O-])c4)c(Oc4cccc5[nH]ccc45)c3)CC2)=C(c2ccc(Cl)cc2)C1 [EXAMPLE 244, 4-(4-{[2-(4-chlorophenyl)-4,4-dimethylcyclohex-1-en-1-yl]methyl}piperazin-1-yl)-2-(1H-indol-4-yloxy)-N-({3-nitro-4-[(tetrahydro-2H-pyran-4-ylmethyl)amino]phenyl}sulfonyl)benzamide] | >4136.9
CC1(C)CCC(CN2CCN(c3ccc(C(=O)NS(=O)(=O)c4ccc(NC5CCN(C6Cc7ccccc7C6)CC5)c([N+](=O)[O-])c4)c(Oc4cccc5[nH]ccc45)c3)CC2)=C(c2ccc(Cl)cc2)C1 [EXAMPLE 227, 4-(4-{[2-(4-chlorophenyl)-4,4-dimethylcyclohex-1-en-1-yl]methyl}piperazin-1-yl)-N-[(4-{[1-(2,3-dihydro-1H-inden-2-yl)piperidin-4-yl]amino}-3-nitrophenyl)sulfonyl]-2-(1H-indol-4-yloxy)benzamide] | >96.6
O=C(NS(=O)(=O)c1ccc(NCC2CCOCC2)c(S(=O)(=O)C(F)(F)F)c1)c1ccc(N2CCN(Cc3ccccc3-c3ccc(Cl)cc3)CC2)cc1Oc1ccc2ccccc2c1 [Example 37, 4-{4-[(4′-chloro-1,1′-biphenyl-2-yl)methyl]piperazin-1-yl}-2-(2-naphthyloxy)-N-({4-[(tetrahydro-2H-pyran-4-ylmethyl)amino]-3-[(trifluoromethyl)sulfonyl]phenyl}sulfonyl)benzamide] | 95.7
CN(C)CC[C@H](Nc1ccc(S(=O)(=O)NC(=O)c2ccc(N3CCN(Cc4ccccc4-c4ccc(Cl)cc4)CC3)cc2Oc2ccccc2)cc1[N+](=O)[O-])c1cccs1 [Example 161, 4-{4-[(4′-chloro-1,1′-biphenyl-2-yl)methyl]piperazin-1-yl}-N-[(4-{[(1S)-3-(dimethylamino)-1-thien-2-ylpropyl]amino}-3-nitrophenyl)sulfonyl]-2-phenoxybenzamide] | >386.0
COCCCNc1ccc(S(=O)(=O)NC(=O)c2ccc(N3CCN(CC4=C(c5ccc(Cl)cc5)CC(C)(C)CC4)CC3)cc2Oc2cccc3[nH]ccc23)cc1[N+](=O)[O-] [EXAMPLE 318, 4-(4-{[2-(4-chlorophenyl)-4,4-dimethylcyclohex-1-en-1-yl]methyl}piperazin-1-yl)-2-(1H-indol-4-yloxy)-N-({4-[(3-methoxypropyl)amino]-3-nitrophenyl}sulfonyl)benzamide] | 102.6
CC1(C)CCC(CN2CCN(c3ccc(C(=O)NS(=O)(=O)c4ccc(NC5CCN(CCCC(F)(F)F)CC5)c([N+](=O)[O-])c4)c(Oc4ccc5[nH]ccc5c4)c3)CC2)=C(c2ccc(Cl)cc2)C1 [EXAMPLE 216, 4-(4-{[2-(4-chlorophenyl)-4,4-dimethylcyclohex-1-en-1-yl]methyl}piperazin-1-yl)-2-(1H-indol-5-yloxy)-N-[(3-nitro-4-{[1-(4,4,4-trifluorobutyl)piperidin-4-yl]amino}phenyl)sulfonyl]benzamide] | >1073.2
CC1(C)CCC(CN2CCN(c3ccc(C(=O)NS(=O)(=O)c4ccc(NCC5CCS(=O)(=O)CC5)c([N+](=O)[O-])c4)c(Oc4cccc5[nH]ccc45)c3)CC2)=C(c2ccc(Cl)cc2)C1 [EXAMPLE 301, 4-(4-{[2-(4-chlorophenyl)-4,4-dimethylcyclohex-1-en-1-yl]methyl}piperazin-1-yl)-N-[(4-{[(1,1-dioxidotetrahydro-2H-thiopyran-4-yl)methyl]amino}-3-nitrophenyl)sulfonyl]-2-(1H-indol-4-yloxy)benzamide] | >2268.0
O=C(NS(=O)(=O)c1ccc(NCC2CCOCC2)c([N+](=O)[O-])c1)c1ccc(N2CCN(CC3=C(c4ccc(Cl)cc4)CCC(N4CCCC4)C3)CC2)cc1Oc1ccc2[nH]ccc2c1 (stereo not shown) [EXAMPLE 272, 4-(4-{[2-(4-chlorophenyl)-5-pyrrolidin-1-ylcyclohex-1-en-1-yl]methyl}piperazin-1-yl)-2-(1H-indol-5-yloxy)-N-({3-nitro-4-[(tetrahydro-2H-pyran-4-ylmethyl)amino]phenyl}sulfonyl)benzamide] | >58011.8
CC1(C)CCC(CN2CCN(c3ccc(C(=O)NS(=O)(=O)c4ccc(NCC5CN(S(C)(=O)=O)CCO5)c([N+](=O)[O-])c4)c(Oc4cccc5[nH]cnc45)c3)CC2)=C(c2ccc(Cl)cc2)C1 (stereo not shown) [EXAMPLE 458, 2-(1H-benzimidazol-4-yloxy)-4-(4-{[2-(4-chlorophenyl)-4,4-dimethylcyclohex-1-en-1-yl]methyl}piperazin-1-yl)-N-{[4-({[4-(methylsulfonyl)morpholin-2-yl]methyl}amino)-3-nitrophenyl]sulfonyl}benzamide] | 237.24
CC(=O)N1CCOC(CNc2ccc(S(=O)(=O)NC(=O)c3ccc(N4CCN(CC5=C(c6ccc(Cl)cc6)CC(C)(C)CC5)CC4)cc3Oc3cccc4[nH]cnc34)cc2[N+](=O)[O-])C1 (stereo not shown) [EXAMPLE 457, N-[(4-{[(4-acetylmorpholin-2-yl)methyl]amino}-3-nitrophenyl)sulfonyl]-2-(1H-benzimidazol-4-yloxy)-4-(4-{[2-(4-chlorophenyl)-4,4-dimethylcyclohex-1-en-1-yl]methyl}piperazin-1-yl)benzamide] | 7414
CC1(C)CCC(CN2CCN(c3ccc(C(=O)NS(=O)(=O)c4ccc(NCC5CN(CC#N)CCO5)c([N+](=O)[O-])c4)c(Oc4cccc5[nH]cnc45)c3)CC2)=C(c2ccc(Cl)cc2)C1 (stereo not shown) [EXAMPLE 431, 2-(1H-benzimidazol-4-yloxy)-4-(4-{[2-(4-chlorophenyl)-4,4-dimethylcyclohex-1-en-1-yl]methyl}piperazin-1-yl)-N-{[4-({[4-(cyanomethyl)morpholin-2-yl]methyl}amino)-3-nitrophenyl]sulfonyl}benzamide] | 677.36
CO[C@H]1CC[C@@H](CNc2ccc(S(=O)(=O)NC(=O)c3ccc(N4CCN(CC5=C(c6ccc(Cl)cc6)CC(C)(C)CC5)CC4)cc3Oc3ccc4[nH]ccc4c3)cc2[N+](=O)[O-])CC1 [EXAMPLE 313, Cis-4-(4-{[2-(4-chlorophenyl)-4,4-dimethylcyclohex-1-en-1-yl]methyl}piperazin-1-yl)-2-(1H-indol-5-yloxy)-N-[(4-{[(4-methoxycyclohexyl)methyl]amino}-3-nitrophenyl)sulfonyl]benzamide] | 1500
O=C(NS(=O)(=O)c1ccc(NCC2CCOCC2)c([N+](=O)[O-])c1)c1ccc(N2CCN(Cc3ccc(C(F)(F)F)cc3-c3ccc(Cl)cc3)CC2)cc1Oc1ccc2[nH]ccc2c1 [EXAMPLE 339, 4-(4-{[4′-chloro-5-(trifluoromethyl)-1,1′-biphenyl-2-yl]methyl}piperazin-1-yl)-2-(1H-indol-5-yloxy)-N-({3-nitro-4-[(tetrahydro-2H-pyran-4-ylmethyl)amino]phenyl}sulfonyl)benzamide] | >46.7
CC1(C)CCC(CN2CCN(c3ccc(C(=O)NS(=O)(=O)c4ccc(NC5(CO)CCOCC5)c([N+](=O)[O-])c4)c(Oc4cccc5[nH]ccc45)c3)CC2)=C(c2ccc(Cl)cc2)C1 [EXAMPLE 241, 4-(4-{[2-(4-chlorophenyl)-4,4-dimethylcyclohex-1-en-1-yl]methyl}piperazin-1-yl)-N-[(4-{[4-(hydroxymethyl)tetrahydro-2H-pyran-4-yl]amino}-3-nitrophenyl)sulfonyl]-2-(1H-indol-4-yloxy)benzamide] | >108.3
CC1(C)CCC(CN2CCN(c3ccc(C(=O)NS(=O)(=O)c4ccc(NC5CCN(C6CC6)CC5)c([N+](=O)[O-])c4)c(Oc4cccc5[nH]cnc45)c3)CC2)=C(c2ccc(Cl)cc2)C1 [EXAMPLE 451, 2-(1H-benzimidazol-4-yloxy)-4-(4-{[2-(4-chlorophenyl)-4,4-dimethylcyclohex-1-en-1-yl]methyl}piperazin-1-yl)-N-({4-[(1-cyclopropylpiperidin-4-yl)amino]-3-nitrophenyl}sulfonyl)benzamide] | 359.92
CN1CC(Nc2ccc(S(=O)(=O)NC(=O)c3ccc(N4CCN(CC5=C(c6ccc(Cl)cc6)CC(C)(C)CC5)CC4)cc3Oc3ccc4[nH]ccc4c3)cc2[N+](=O)[O-])CCC1=O (stereo not shown) [EXAMPLE 282, 4-(4-{[2-(4-chlorophenyl)-4,4-dimethylcyclohex-1-en-1-yl]methyl}piperazin-1-yl)-2-(1H-indol-5-yloxy)-N-({4-[(1-methyl-6-oxopiperidin-3-yl)amino]-3-nitrophenyl}sulfonyl)benzamide] | 3434.4
CN1CCC(O)(CCNc2ccc(S(=O)(=O)NC(=O)c3ccc(N4CCN(CC5=C(c6ccc(Cl)cc6)CC(C)(C)CC5)CC4)cc3Oc3ccc4[nH]ccc4c3)cc2[N+](=O)[O-])CC1 [EXAMPLE 211, 4-(4-{[2-(4-chlorophenyl)-4,4-dimethylcyclohex-1-en-1-yl]methyl}piperazin-1-yl)-N-[(4-{[2-(4-hydroxy-1-methylpiperidin-4-yl)ethyl]amino}-3-nitrophenyl)sulfonyl]-2-(1H-indol-5-yloxy)benzamide] | 651.1
